These results are taken from US11999727B2 (Tango Therapeutics, Inc., priority 2020, dated 2024).

For test [1], the system named is HAP1 MTAP-deleted cell line. Description: SDMA in-cell western assay, HAP1 MTAP-deleted. As to conditions: for IC50: Homo sapiens, HAP1, SDMA in-cell western, HAP1 MTAP-deleted; for MTAP intact/deleted ratio: IC50 ratio HAP1 MTAP-intact / HAP1 MTAP-deleted, SDMA in-cell western. It counts as cell-based. The method, boiled down:
(§1)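 IC50 values come from SDMA signal quantified by in-cell western in two HAP1 lines, one with native MTAP levels and one lacking MTAP.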

Test [2] has as its system HAP1 MTAP-intact cell line. Description: SDMA in-cell western assay, HAP1 MTAP-intact. It counts as cell-based. The settings on record: Homo sapiens, HAP1, SDMA in-cell western, HAP1 MTAP-intact; read-out: MTAP HAP1 intact IC50. Put shortly:
as §1

Test [3] concerns the target T1, PRMT5 (Homo sapiens, UniProt O14744).
T1 construct: purchased Viva (custom protein)
The experiment in a line: PRMT5 biochemical IC50 assay with no cofactor. The settings on record: PRMT5, no cofactor. From the text: Table 1 indicates IC50 values (μM) against PRMT5 for exemplary compounds in the presence of SAM as cofactor, with no cofactor, and with MTA as cofactor, respectively (columns 4-6). […] Ki values can be calculated from the IC50 values as described in the Examples section. As detailed in the Examples section, for the assay performed in the presence of SAM, IC50=Ki×1.5 (Ki=IC50/1.5).

Test [4] deals with T1, PRMT5. Description: PRMT5 biochemical IC50 assay with SAM as cofactor. As to conditions: PRMT5, SAM as cofactor; read-out: SAM IC50.
The subject of test [5] is HAP1 MTAP-deleted cell line. The experiment in a line: Viability assay, MTAP-deleted cell line. It counts as cell-based. The settings on record: Homo sapiens, read-out: HAP1 MTAP deleted viability. From the text:
Table 1 additionally indicates IC50 values in a viability assay for the MTAP-deleted cell line (column 10), indicating the effect of treatment with compound on cell survival.

Test [6] concerns the target T1, PRMT5. Description: PRMT5 biochemical IC50 assay with MTA as cofactor. As to conditions: PRMT5, MTA as cofactor; read-out: MTA IC50.
[7] abbreviates: read-out: HAP1 MTAP deleted IC50.
The mark [8] stands for this setting: HAP1, viability assay, MTAP-deleted cell line.
Where [9] appears, read: HAP1, viability assay, HAP1 MTAP-deleted.
The mark [10] stands for this setting: read-out: HAP 1 MTAP deleted IC50.
Where [11] appears, read: HAP1, viability IC50, MTAP-deleted cell line.
The mark [12] stands for this setting: read-out: No Cofactor/ rel IC50.
[13] abbreviates: HAP1, viability, HAP1 MTAP-deleted cell line.

T1 sequence (O14744 whole entry): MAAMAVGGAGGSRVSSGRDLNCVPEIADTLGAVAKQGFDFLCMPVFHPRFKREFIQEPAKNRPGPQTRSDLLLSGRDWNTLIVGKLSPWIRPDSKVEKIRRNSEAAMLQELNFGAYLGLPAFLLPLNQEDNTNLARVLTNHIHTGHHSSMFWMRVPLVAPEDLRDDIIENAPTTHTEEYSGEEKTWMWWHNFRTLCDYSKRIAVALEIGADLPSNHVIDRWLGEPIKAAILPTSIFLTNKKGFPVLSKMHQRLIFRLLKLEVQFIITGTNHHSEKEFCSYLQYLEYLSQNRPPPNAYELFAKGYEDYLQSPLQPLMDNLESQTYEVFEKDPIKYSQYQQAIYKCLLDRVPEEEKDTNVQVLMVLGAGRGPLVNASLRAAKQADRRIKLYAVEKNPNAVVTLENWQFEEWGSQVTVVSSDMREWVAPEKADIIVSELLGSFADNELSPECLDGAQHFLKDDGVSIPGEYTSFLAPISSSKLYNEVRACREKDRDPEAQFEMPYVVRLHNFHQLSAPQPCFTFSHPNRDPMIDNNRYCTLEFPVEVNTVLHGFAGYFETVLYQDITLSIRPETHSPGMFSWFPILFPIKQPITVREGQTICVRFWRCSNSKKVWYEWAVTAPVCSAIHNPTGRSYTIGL
T1 sequence (Q9BQA1 whole entry partner): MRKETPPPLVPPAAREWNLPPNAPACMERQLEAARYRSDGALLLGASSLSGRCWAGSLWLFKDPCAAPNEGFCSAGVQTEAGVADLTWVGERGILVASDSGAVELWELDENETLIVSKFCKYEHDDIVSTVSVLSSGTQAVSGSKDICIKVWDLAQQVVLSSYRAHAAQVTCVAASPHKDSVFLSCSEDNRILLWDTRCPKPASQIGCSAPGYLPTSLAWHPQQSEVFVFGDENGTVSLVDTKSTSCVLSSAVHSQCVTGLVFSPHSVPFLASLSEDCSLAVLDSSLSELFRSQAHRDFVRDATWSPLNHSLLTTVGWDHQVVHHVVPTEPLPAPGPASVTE

For the compound `Cc1cc(NC(=O)C(=O)N2C[C@H](C)CC[C@H]2c2cccc(Cl)c2)cnc1N` (single isomer, unassigned) [Compound 283], the IC50 in test [1] (setting [7]) was > 1000 nM; in test [2] it was > 1000 nM; in test [3] (read-out: No Cofactor/rel IC50), > 500 nM; in test [4], > 500 nM; in test [5] (setting [8]) it was > 10000 nM; in test [6], > 500 nM. Further, the MTAP intact/deleted ratio entry in test [1] is “B (an IC50 ratio greater than or equal to 3 fold but lower than 10 fold)”.
As for `CCc1cc(NC(=O)C(=O)N2C[C@@H](C)CC[C@@H]2c2ccc3[nH]c(=O)ccc3c2)cnc1N` (single isomer, unassigned) [Compound 825], the IC50 in test [1] (setting [7]) is < 100 nM; in test [2], 100 to 1000 nM; in test [3] (read-out: No Cofactor/rel IC50) it was < 50 nM; in test [4], 50 to 500 nM; in test [5] (setting [9]), < 1000 nM; in test [6], < 50 nM. In test [1], the MTAP intact/deleted ratio entry is “A (an IC50 ratio greater than or equal to 10 fold)”.
As to `COc1ncc(NC(=O)C(=O)N2C[C@H](C)CC[C@H]2c2ccc3c(c2)CC(=O)N3)cc1C(N)=O` (single isomer, unassigned) [Compound 453], the IC50 in test [1] (setting [7]) was > 1000 nM; in test [2] it was > 1000 nM; in test [3] (read-out: No Cofactor/rel IC50), > 500 nM; in test [4], > 500 nM; in test [5] (setting [8]) it was > 10000 nM; in test [6] it was > 500 nM. The MTAP intact/deleted ratio result in test [1] is reported as “C (an IC50 ratio of less than 3 fold)”.
As to `CC(=O)N[C@H]1C[C@H]([C@@H]2CC[C@H](C)CN2C(=O)C(=O)Nc2cnc(N)c(C)c2)C1` (single isomer, unassigned) [Compound 562], the IC50 in test [1] (setting [10]) was > 1000 nM; in test [2] it was > 1000 nM; in test [3] (read-out: No Cofactor/rel IC50), > 500 nM; in test [4], > 500 nM; in test [5] (setting [11]), > 10000 nM; in test [6] it was > 500 nM. Further, in test [1], the MTAP intact/deleted ratio entry was “C (an IC50 ratio of less than 3 fold)”.
Take `Cc1nc2cc([C@H]3CC[C@H](C)CN3C(=O)C(=O)Nc3cnc(N)c(C)c3)ccc2s1` (single isomer, unassigned) [Compound 719]: the IC50 is < 100 nM in test [1] (setting [7]); 100 to 1000 nM in test [2]; < 50 nM in test [3] (read-out: No Cofactor/rel IC50); 50 to 500 nM in test [4]; < 1000 nM in test [5] (setting [9]); < 50 nM in test [6]. Also, the MTAP intact/deleted ratio result in test [1] is reported as “A (an IC50 ratio greater than or equal to 10 fold)”.
Take `CCc1cc(NC(=O)C(=O)N2C[C@@H](C)CC[C@@H]2c2ccc3sc(C4CCOC4)nc3c2)cnc1N` (stereo partly drawn) [Compound 1242, N-(6-amino-5-ethylpyridin-3-yl)-2-((2R,5S)-5-methyl-2-(2-(tetrahydrofuran-3-yl)benzo[d]thiazol-5-yl)piperidin-1-yl)-2-oxoacetamide]: the IC50 in test [1] (setting [10]) was < 100 nM; in test [2], 100 to 1000 nM; in test [3] (setting [12]), < 50 nM; in test [4], 50 to 500 nM; in test [5] (setting [13]) it was < 1000 nM; in test [6], < 50 nM. Also, the “MTAP intact/deleted ratio” value in test [1] is given as “A (an IC50 ratio greater than or equal to 10 fold)”.
As for `C[C@@H]1CC[C@@H](c2ccc(Cl)c(Cl)c2)N(C(=O)C(=O)Nc2cncc(C(N)=O)c2)C1` (racemic) [Compound 243, rac-5-{2-[(2R,5S)-2-(3,4-Dichlorophenyl)-5-methylpiperidin-1-yl]-2-oxoacetamido}pyridine-3-carboxamide], the IC50 is 100 to 1000 nM in test [1] (setting [7]); > 1000 nM in test [2]; 50 to 500 nM in test [3] (read-out: No Cofactor/rel IC50); 50 to 500 nM in test [4]; 1000 to 10000 nM in test [5] (setting [8]); < 50 nM in test [6]. Moreover, the MTAP intact/deleted ratio entry in test [1] is on record as “A (an IC50 ratio greater than or equal to 10 fold)”.
On to `C[C@@H]1CC[C@@H](c2ccc(-n3cccn3)cc2)N(C(=O)C(=O)Nc2cncc(C(N)=O)c2)C1` (racemic) [Compound 256, rac-5-{2-[(2R,5S)-5-Methyl-2-[4-(1H-pyrazol-1-yl)phenyl]piperidin-1-yl]-2-oxoacetamido}pyridine-3-carboxamide], for which the IC50 in test [1] (setting [7]) was < 100 nM; in test [2], > 1000 nM; in test [3] (read-out: No Cofactor/rel IC50) it was 50 to 500 nM; in test [4], 50 to 500 nM; in test [5] (setting [8]), 1000 to 10000 nM; in test [6] it was < 50 nM. In test [1], the MTAP intact/deleted ratio entry is “A (an IC50 ratio greater than or equal to 10 fold)”.
As for `C[C@@H]1CC[C@@H](c2ccc3c(c2)CCCO3)N(C(=O)C(=O)Nc2cncc(C(N)=O)c2)C1` (racemic) [Compound 341, rac-5-{2-[(2R,5S)-2-(3,4-Dihydro-2H-1-benzopyran-6-yl)-5-methylpiperidin-1-yl]-2-oxoacetamido}pyridine-3-carboxamide], the IC50 is < 100 nM in test [1] (setting [7]); > 1000 nM in test [2]; 50 to 500 nM in test [3] (read-out: No Cofactor/rel IC50); 50 to 500 nM in test [4]; 1000 to 10000 nM in test [5] (setting [8]); 50 to 500 nM in test [6]. For the same compound, the MTAP intact/deleted ratio entry in test [1] is “A (an IC50 ratio greater than or equal to 10 fold)”.
In the case of `CCc1cc(NC(=O)C(=O)N2C[C@@H](C)CC[C@@H]2c2ccc(N3C[C@H]4CN(C)CC[C@H]4C3)cc2)cnc1N` (racemic) [Compound 1287, N-(6-amino-5-ethyl-3-pyridyl)-2-oxo-2-[rac-(2R,5S)-5-methyl-2-[4-[rac-(3aR,7aR)-5-methyl-3,3a,4,6,7,7a-hexahydro-1H-pyrrolo[3,4-c]pyridin-2-yl]phenyl]-1-piperidyl]acetamide], the IC50 was < 100 nM in test [1] (setting [10]); 100 to 1000 nM in test [2]; < 50 nM in test [3] (setting [12]); 50 to 500 nM in test [4]; < 1000 nM in test [5] (setting [13]); < 50 nM in test [6]. Further, in test [1], the “MTAP intact/deleted ratio” value was “A (an IC50 ratio greater than or equal to 10 fold)”.
Take `Cc1cc(NC(=O)C(=O)N2C[C@H](C)CC[C@H]2c2cc(F)c3[nH]ncc3c2)cnc1N` (single isomer, unassigned) [Compound 1191]: the IC50 in test [1] (setting [7]) is > 1000 nM; in test [2], > 1000 nM; in test [3] (read-out: No Cofactor/rel IC50), > 500 nM; in test [4], > 500 nM; in test [5] (setting [8]), > 10000 nM; in test [6], > 500 nM.
For the compound `COc1ncc(NC(=O)C(=O)N2C[C@H](C)CC[C@H]2c2ccc(-c3nccs3)cc2)cc1C(N)=O` (single isomer, unassigned) [Compound 799], the IC50 in test [1] (setting [7]) is > 1000 nM; in test [2], > 1000 nM; in test [3] (read-out: No Cofactor/rel IC50), > 500 nM; in test [4], > 500 nM; in test [5] (setting [9]), > 10000 nM; in test [6] it was > 500 nM. Also, the MTAP intact/deleted ratio result in test [1] is on record as “C (an IC50 ratio of less than 3 fold)”.
On to `Cc1cc(NC(=O)C(=O)N2C[C@H](C)CC[C@H]2c2ccc(C(F)(F)F)cc2)cnc1N` (single isomer, unassigned) [Compound 548], for which the IC50 was < 100 nM in test [1] (setting [10]); < 100 nM in test [2]; 50 to 500 nM in test [3] (read-out: No Cofactor/rel IC50); 50 to 500 nM in test [4]; < 1000 nM in test [5] (setting [11]); < 50 nM in test [6]. In addition, the MTAP intact/deleted ratio entry in test [1] is reported as “C (an IC50 ratio of less than 3 fold)”.
Regarding `C[C@H]1CC[C@H](C2CCCCC2)N(C(=O)C(=O)Nc2cncc(C(N)=O)c2)C1` (single isomer, unassigned) [Compound 117], the IC50 in test [1] (setting [10]) is 100 to 1000 nM; in test [2], > 1000 nM; in test [3] (setting [12]), > 500 nM; in test [4], > 500 nM; in test [5] (setting [8]), > 10000 nM; in test [6], 50 to 500 nM. In test [1], the “MTAP intact/deleted ratio” value is “A (an IC50 ratio greater than or equal to 10 fold)”.
Regarding `C[C@H]1CC[C@H](c2cccnc2)N(C(=O)C(=O)Nc2cncc(C(N)=O)c2)C1` (single isomer, unassigned) [Compound 105], the IC50 in test [1] (setting [10]) is > 1000 nM; in test [2], > 1000 nM; in test [3] (setting [12]) it was > 500 nM; in test [4], > 500 nM; in test [5] (setting [8]), > 10000 nM; in test [6], > 500 nM. Moreover, the “MTAP intact/deleted ratio” value in test [1] was “C (an IC50 ratio of less than 3 fold)”.
